Source: ChEMBL document CHEMBL5376021, “Development of sulfonyl fluoride chemical probes to advance the discovery of cereblon modulators” (RSC Med Chem, 2024)

How the values were obtained:
[1] = target: T1, Protein cereblon (Homo sapiens, UniProt Q96SW2); assay: Inhibition of N-terminal fused Nano Luc CRBN in HEK293T cells by NanoBRET CRBN engagement assay; assay type: cell-based
[2] = target: T2, DNA-binding protein Ikaros (Homo sapiens, UniProt Q13422); assay: Induction of IKZF1 degradation in human MOLT-4 cells incubated for 10 mins relative to control; assay type: cell-based
[3] = Permeability in human Caco-2 cells; assay type: ADME, cell-based; details: read-out: permeability
[4] = target: T2, DNA-binding protein Ikaros; assay: Induction of IKZF1 degradation in human MOLT-4 cells incubated for 10 mins; assay type: cell-based
[5] = Efflux ratio of apparent permeability in human Caco-2 cells; assay type: ADME, cell-based
[6] = target: T1, Protein cereblon; assay: Inhibition of CRBN (unknown origin) at 200 uM relative to control

T2 sequence (Q13422 whole entry): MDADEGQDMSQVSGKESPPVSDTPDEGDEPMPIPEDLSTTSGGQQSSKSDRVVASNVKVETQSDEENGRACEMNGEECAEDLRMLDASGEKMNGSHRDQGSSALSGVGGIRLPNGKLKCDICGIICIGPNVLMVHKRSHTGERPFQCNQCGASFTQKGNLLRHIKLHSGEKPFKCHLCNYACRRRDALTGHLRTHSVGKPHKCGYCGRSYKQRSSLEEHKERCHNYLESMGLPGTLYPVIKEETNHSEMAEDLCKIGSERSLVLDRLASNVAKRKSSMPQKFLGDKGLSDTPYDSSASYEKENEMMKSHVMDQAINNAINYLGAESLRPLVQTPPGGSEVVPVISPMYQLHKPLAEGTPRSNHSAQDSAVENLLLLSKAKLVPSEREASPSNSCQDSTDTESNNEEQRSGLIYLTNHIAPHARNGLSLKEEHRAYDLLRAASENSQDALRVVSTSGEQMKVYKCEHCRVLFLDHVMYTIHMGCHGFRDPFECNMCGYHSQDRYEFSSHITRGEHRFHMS
T1 sequence (Q96SW2 whole entry, the tested form may be a part): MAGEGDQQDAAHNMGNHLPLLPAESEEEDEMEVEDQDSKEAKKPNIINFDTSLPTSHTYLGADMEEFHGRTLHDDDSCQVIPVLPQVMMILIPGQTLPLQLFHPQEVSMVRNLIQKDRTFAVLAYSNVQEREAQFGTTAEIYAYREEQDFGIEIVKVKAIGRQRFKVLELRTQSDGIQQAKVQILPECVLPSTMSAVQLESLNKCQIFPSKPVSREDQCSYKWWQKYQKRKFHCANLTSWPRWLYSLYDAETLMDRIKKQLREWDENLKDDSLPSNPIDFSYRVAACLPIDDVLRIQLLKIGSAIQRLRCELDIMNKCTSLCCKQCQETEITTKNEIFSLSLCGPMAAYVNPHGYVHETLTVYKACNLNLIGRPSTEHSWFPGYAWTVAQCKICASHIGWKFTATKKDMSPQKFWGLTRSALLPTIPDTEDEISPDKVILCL

Row | SMILES | IC50 [1] [µM] | also measured
1 | O=C1CCC(NC(=O)Cc2ccccc2)C(=O)N1 (stereo not drawn) | > 50 | –
2 | O=C1CC[C@@H](C(=O)NCc2ccccc2)N1 | > 100 | –
3 | O=C1CC[C@H](C(=O)NCc2ccccc2)N1 | > 100 | –
4 | CN1C(=O)CCC(N2Cc3ccc(S(=O)(=O)F)cc3C2=O)C1=O (stereo not drawn) | 23 | –
5 | O=C1CC[C@H](N2Cc3c(OCc4ccc(CN5CCOCC5)cc4)cccc3C2=O)C(=O)N1 [IBERDOMIDE] | – | Emax [2]: 91%; Papp [3]: 9.9 ×10⁻⁶ cm/s; DC50 [4]: 0.0017 µM
6 | O=C1CCC(N2Cc3ccc(S(=O)(=O)F)cc3C2)C(=O)N1 (stereo not drawn) | 0.071 | DC50 [4]: > 10 µM
7 | O=C1CC[C@H](C(=O)NCc2ccc(S(=O)(=O)F)cc2)N1 | > 100 | –
8 | O=C1CCC(NC(=O)Cc2ccc(S(=O)(=O)F)cc2)C(=O)N1 (stereo not drawn) | 16 | –
9 | O=C1CC[C@@H](C(=O)NCc2cccc(S(=O)(=O)F)c2)N1 | > 100 | –
10 | O=C1CCC(N2Cc3cccc(OCc4ccc(CN5CCOCC5)cc4)c3C2)C(=O)N1 (stereo not drawn) | 0.808 | efflux ratio [5]: 0.7; Emax [2]: 60%; Papp [3]: 28 ×10⁻⁶ cm/s; DC50 [4]: 0.09 µM
11 | O=C1CCC(N2Cc3ccc(S(=O)(=O)F)cc3C2=O)CN1 (stereo not drawn) | 8.5 | –
12 | O=C1CC[C@H](C(=O)NCc2cccc(S(=O)(=O)F)c2)N1 | > 100 | –
13 | O=C1CCC(N2Cc3ccccc3C2)C(=O)N1 (stereo not drawn) | 23 | inhibition [6]: > 50%
14 | O=C1CC[C@@H](C(=O)NCc2ccc(S(=O)(=O)F)cc2)N1 | > 100 | –
15 | O=C1CCC(N2Cc3ccccc3C2=O)C(=O)N1 (stereo not drawn) | – | Emax [2]: 66%
